Data as given in ChEMBL document CHEMBL1201862, “PubChem BioAssay data set” (2004).
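Method: 48-hour compound exposure of cells in 96-well plates, five concentrations, linear interpolation of endpoints. GI50 is the concentration that inhibits growth by half.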 The source made the active and inactive calls. Cut-off read from the data, not from the text of the source: active = GI50 up to about 1.1 µM and inactive = higher.

What was measured:
Assay in all cases: NCI tumour cell line growth inhibition, 48 h
NCI-H522 = system: NCI-H522
OVCAR-3 = system: OVCAR-3
IGROV-1 = system: IGROV-1
HCC 2998 = system: HCC 2998
HT-29 = system: HT-29
HL-60 = system: HL-60
HOP-62 = system: HOP-62
SNB-19 = system: SNB-19
DU-145 = system: DU-145
SK-MEL-5 = system: SK-MEL-5
MDA-MB-231 = system: MDA-MB-231
K562 = system: K562
OVCAR-8 = system: OVCAR-8
ACHN = system: ACHN
A549 = system: A549
COLO 205 = system: COLO 205
SNB-75 = system: SNB-75
SW-620 = system: SW-620
UACC-257 = system: UACC-257
TK-10 = system: TK-10

Measured: GI50

CC1c2ccccc2Cn2cc3c(c21)C(=O)c1cccc(OP(=O)(O)OCc2ccccc2)c1C3=O (stereo not given)
inactive: NCI-H522 > 100 µM | OVCAR-3 > 100 µM | IGROV-1 > 100 µM | HCC 2998 > 100 µM | HT-29 > 100 µM | HL-60 > 52.5 µM | HOP-62 > 100 µM | SNB-19 > 100 µM | DU-145 > 100 µM | SK-MEL-5 > 100 µM | MDA-MB-231 > 100 µM | K562 > 74.6 µM | OVCAR-8 > 100 µM | ACHN > 100 µM | A549 > 100 µM | COLO 205 > 100 µM | SNB-75 > 100 µM | SW-620 > 100 µM | UACC-257 > 100 µM | TK-10 > 100 µM

c1cnc2c(c1)Nc1cnncc1S2
inactive: NCI-H522 > 100 µM | OVCAR-3 > 100 µM | IGROV-1 > 100 µM | HCC 2998 > 100 µM | HT-29 > 100 µM | HL-60 > 100 µM | HOP-62 > 100 µM | SNB-19 > 100 µM | DU-145 > 100 µM | SK-MEL-5 > 100 µM | MDA-MB-231 > 100 µM | K562 > 100 µM | OVCAR-8 > 100 µM | ACHN > 100 µM | A549 > 100 µM | COLO 205 > 100 µM | SNB-75 12.2 µM | SW-620 > 100 µM | UACC-257 > 100 µM | TK-10 > 100 µM

CN(C(=O)C1(C(=O)C=[N+]=[N-])CC1)c1ccccc1
inactive: NCI-H522 83.6 µM | OVCAR-3 > 100 µM | IGROV-1 > 100 µM | HCC 2998 > 100 µM | HT-29 > 100 µM | HL-60 > 100 µM | HOP-62 > 100 µM | SNB-19 > 100 µM | DU-145 > 100 µM | SK-MEL-5 > 100 µM | MDA-MB-231 > 100 µM | K562 > 100 µM | OVCAR-8 > 100 µM | ACHN > 100 µM | A549 > 100 µM | COLO 205 > 100 µM | SNB-75 > 100 µM | SW-620 > 100 µM | UACC-257 > 100 µM | TK-10 > 100 µM

COCn1c(=O)n(C)c(=O)c2c1nc1c(c(=O)n(C)c(=O)n1COC)[n+]2[O-]
inactive: NCI-H522 8.97 µM | OVCAR-3 10.6 µM | IGROV-1 7.36 µM | HCC 2998 5.33 µM | HT-29 18.8 µM | HL-60 12.7 µM | HOP-62 9.23 µM | SNB-19 13.7 µM | DU-145 17.1 µM | SK-MEL-5 5.83 µM | MDA-MB-231 15.3 µM | K562 4.75 µM | OVCAR-8 5.7 µM | ACHN 5.73 µM | A549 23.4 µM | COLO 205 12.5 µM | SNB-75 2.75 µM | SW-620 11.1 µM | UACC-257 18.2 µM | TK-10 8.69 µM

Cc1ccc([N+](=O)[O-])cc1S(=O)(=O)Nc1ccc(C2=NOC(c3cccs3)C2)cc1 (stereo not given)
inactive: NCI-H522 3.2 µM | OVCAR-3 5.19 µM | IGROV-1 11.1 µM | HCC 2998 9.25 µM | HT-29 12.5 µM | HL-60 3.55 µM | HOP-62 5.79 µM | SNB-19 13.8 µM | DU-145 17.6 µM | SK-MEL-5 7.66 µM | MDA-MB-231 18.7 µM | K562 3.58 µM | OVCAR-8 22.9 µM | ACHN 14.8 µM | A549 12.1 µM | COLO 205 7.8 µM | SNB-75 16.1 µM | SW-620 7.5 µM | UACC-257 16.9 µM | TK-10 16.4 µM

COc1ccc(N2C(=O)C3c4[nH]c5ccc(OC)cc5c4C4CCC(C(C)C)CC4C3C2=O)cc1 (stereo not given)
inactive: NCI-H522 18.1 µM | OVCAR-3 > 100 µM | IGROV-1 > 38 µM | HCC 2998 33.7 µM | HT-29 > 100 µM | HL-60 55.2 µM | HOP-62 12 µM | SNB-19 35.6 µM | DU-145 > 100 µM | SK-MEL-5 > 100 µM | MDA-MB-231 30.4 µM | K562 18.3 µM | OVCAR-8 > 29.4 µM | ACHN > 100 µM | A549 > 72.4 µM | COLO 205 > 100 µM | SNB-75 17.7 µM | SW-620 > 75.3 µM | UACC-257 > 100 µM | TK-10 > 100 µM

C/C(=C\CNc1ncnc2c1ncn2CCC(=O)OC(C)(C)C)CO
inactive: NCI-H522 > 100 µM | OVCAR-3 > 100 µM | IGROV-1 > 100 µM | HCC 2998 > 100 µM | HT-29 > 100 µM | HL-60 > 100 µM | HOP-62 > 100 µM | SNB-19 > 100 µM | DU-145 > 100 µM | SK-MEL-5 > 100 µM | MDA-MB-231 > 100 µM | K562 > 100 µM | OVCAR-8 > 100 µM | ACHN > 100 µM | A549 > 100 µM | COLO 205 > 100 µM | SNB-75 > 100 µM | SW-620 > 100 µM | UACC-257 > 100 µM | TK-10 > 100 µM

Cc1c(/N=N/c2ccc([N+](=O)[O-])cc2)nc2scc(-c3ccccc3)n12
inactive: NCI-H522 46.5 µM | OVCAR-3 > 100 µM | IGROV-1 > 84.1 µM | HCC 2998 > 100 µM | HT-29 > 88.5 µM | HL-60 13.7 µM | HOP-62 > 66.5 µM | SNB-19 > 100 µM | DU-145 > 100 µM | SK-MEL-5 > 100 µM | MDA-MB-231 > 100 µM | K562 22 µM | OVCAR-8 71.6 µM | ACHN 63.4 µM | A549 > 100 µM | COLO 205 > 100 µM | SNB-75 44.5 µM | SW-620 > 80.2 µM | UACC-257 > 100 µM | TK-10 > 74.6 µM

CC(=O)O/C=C\OC1CCCC1
inactive: NCI-H522 > 100 µM | OVCAR-3 > 100 µM | IGROV-1 > 100 µM | HCC 2998 > 100 µM | HT-29 > 100 µM | HL-60 > 100 µM | HOP-62 > 100 µM | SNB-19 > 100 µM | DU-145 > 100 µM | SK-MEL-5 > 100 µM | MDA-MB-231 > 100 µM | K562 > 100 µM | OVCAR-8 > 100 µM | ACHN > 100 µM | A549 > 100 µM | COLO 205 > 100 µM | SNB-75 55 µM | SW-620 > 100 µM | UACC-257 > 100 µM | TK-10 > 100 µM
